Data from the supplement of paper PMC11451515.

Tested on: NOMO1
Assay: cell viability relative to DMSO control; higher = less cytotoxic
Details: 48 h
In short: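 NOMO1, SEM and P12-Ichikawa leukemia cells spent at least four passages adapting to each medium before use. They were seeded at 500 cells/well (NOMO1, SEM) or 1000 cells/well (P12-Ichikawa) in 5 μl in 1536-well plates and pin-dosed with library compounds in DMSO at 11 threefold steps from 47 μM down to 0.79 nM. After 48 h at 37°C, CellTiter-Glo One luminescence was read. Viability is reported as a percentage of the DMSO wells on each plate, with cell-free wells as background.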

[1] = HPLM + 10% dialyzed FBS, 0.000781 µM
[2] = HPLM + 10% dialyzed FBS, 0.00234 µM
[3] = HPLM + 10% dialyzed FBS, 0.00702 µM
[4] = HPLM + 10% dialyzed FBS, 0.0211 µM
[5] = HPLM + 10% dialyzed FBS, 0.0632 µM
[6] = HPLM + 10% dialyzed FBS, 0.19 µM
[7] = HPLM + 10% dialyzed FBS, 0.569 µM
[8] = HPLM + 10% dialyzed FBS, 1.71 µM
[9] = HPLM + 10% dialyzed FBS, 5.12 µM
[10] = HPLM + 10% dialyzed FBS, 15.4 µM
[11] = HPLM + 10% dialyzed FBS, 46.1 µM
[12] = RPMI 5 mM glucose + 10% FBS, 0.000781 µM
[13] = RPMI 5 mM glucose + 10% FBS, 0.00234 µM
[14] = RPMI 5 mM glucose + 10% FBS, 0.00702 µM
[15] = RPMI 5 mM glucose + 10% FBS, 0.0211 µM
[16] = RPMI 5 mM glucose + 10% FBS, 0.0632 µM
[17] = RPMI 5 mM glucose + 10% FBS, 0.19 µM
[18] = RPMI 5 mM glucose + 10% FBS, 0.569 µM
[19] = RPMI 5 mM glucose + 10% FBS, 1.71 µM
[20] = RPMI 5 mM glucose + 10% FBS, 5.12 µM
[21] = RPMI 5 mM glucose + 10% FBS, 15.4 µM
[22] = RPMI 5 mM glucose + 10% FBS, 46.1 µM
[23] = RPMI 5 mM glucose + 10% dialyzed FBS, 0.000781 µM
[24] = RPMI 5 mM glucose + 10% dialyzed FBS, 0.00234 µM
[25] = RPMI 5 mM glucose + 10% dialyzed FBS, 0.00702 µM
[26] = RPMI 5 mM glucose + 10% dialyzed FBS, 0.0211 µM
[27] = RPMI 5 mM glucose + 10% dialyzed FBS, 0.0632 µM
[28] = RPMI 5 mM glucose + 10% dialyzed FBS, 0.19 µM
[29] = RPMI 5 mM glucose + 10% dialyzed FBS, 0.569 µM
[30] = RPMI 5 mM glucose + 10% dialyzed FBS, 1.71 µM
[31] = RPMI 5 mM glucose + 10% dialyzed FBS, 5.12 µM
[32] = RPMI 5 mM glucose + 10% dialyzed FBS, 15.4 µM
[33] = RPMI 5 mM glucose + 10% dialyzed FBS, 46.1 µM

Row | Compound | cell viability [1] [%] | cell viability [2] [%] | cell viability [3] [%] | cell viability [4] [%] | cell viability [5] [%] | cell viability [6] [%] | cell viability [7] [%] | cell viability [8] [%] | cell viability [9] [%] | cell viability [10] [%] | cell viability [11] [%] | cell viability [12] [%] | cell viability [13] [%] | cell viability [14] [%] | cell viability [15] [%] | cell viability [16] [%] | cell viability [17] [%] | cell viability [18] [%] | cell viability [19] [%] | cell viability [20] [%] | cell viability [21] [%] | cell viability [22] [%] | cell viability [23] [%] | cell viability [24] [%] | cell viability [25] [%] | cell viability [26] [%] | cell viability [27] [%] | cell viability [28] [%] | cell viability [29] [%] | cell viability [30] [%] | cell viability [31] [%] | cell viability [32] [%] | cell viability [33] [%]
1 | COc1cnc(N[S+](=O)([O-])c2ccc(N)cc2)nc1 | 111 | 114 | 106 | 125 | 125 | 119 | 114 | 130 | 114 | 84.5 | 31.1 | 122 | 118 | 114 | 112 | 124 | 131 | 138 | 128 | 125 | 110 | 48.2 | 110 | 118 | 123 | 125 | 121 | 127 | 114 | 125 | 98.5 | 97.5 | 63.5
2 | Nc1ccccc1NC(=O)c1ccc(CNC(=O)OCc2cccnc2)cc1 | 103 | 127 | 111 | 108 | 118 | 110 | 81.1 | 47 | 22.9 | 12.7 | 3.22 | 103 | 92.5 | 103 | 99 | 108 | 103 | 88.7 | 58.6 | 33.9 | 10.7 | 3.59 | 115 | 107 | 110 | 115 | 123 | 97.3 | 94.2 | 53.9 | 24.7 | 9.54 | 2.99
3 | C#Cc1cccc(Nc2ncnc3cc(OCCOC)c(OCCOC)cc23)c1 | 94.2 | 104 | 101 | 83.7 | 108 | 86 | 90.9 | 110 | 79.3 | 75.3 | 45.7 | 85.4 | 96.9 | 102 | 102 | 93.2 | 91.8 | 95 | 93.7 | 89.7 | 85.1 | 70.7 | 92.2 | 85.5 | 88.9 | 83.4 | 86.6 | 83.8 | 85.4 | 89 | 77.6 | 84 | 50.2
4 | CC1=C(/C=C/C(C)=C/C=C/C(C)=C/C=C/C=C(C)/C=C/C=C(C)/C=C/C2=C(C)CCCC2(C)C)C(C)(C)CCC1 | 115 | 110 | 108 | 104 | 104 | 107 | 100 | 98.2 | 118 | 92.9 | 98.2 | 119 | 112 | 110 | 111 | 108 | 108 | 99.3 | 101 | 113 | 102 | 95.5 | 101 | 113 | 129 | 108 | 112 | 111 | 107 | 117 | 114 | 95.1 | 90.3
5 | COc1ccc(-c2cc3nccn3c(Nc3ncccc3C(N)=O)n2)cc1OC | 125 | 111 | 107 | 117 | 124 | 111 | 110 | 96.6 | 109 | 89 | 93 | 90 | 95.3 | 118 | 107 | 99.7 | 111 | 95 | 103 | 102 | 92.7 | 103 | 106 | 106 | 113 | 95.2 | 116 | 107 | 106 | 105 | 107 | 109 | 101
6 | COc1nccc(-c2c(-c3ccc(F)cc3)ncn2C2CCNCC2)n1 | 95.7 | 121 | 124 | 127 | 120 | 121 | 119 | 94.4 | 107 | 78.3 | 49.4 | 45.8 | 120 | 115 | 101 | 113 | 107 | 100 | 112 | 96.7 | 97.6 | 74 | 44.9 | 119 | 97.3 | 110 | 106 | 104 | 108 | 104 | 101 | 99.1 | 68
7 | Cc1cn2c(-c3cn[nH]c3)cnc2c(Nc2ccc(C(=O)N3CCNCC3)cc2F)n1 | 109 | 102 | 114 | 107 | 96.5 | 100 | 112 | 82.7 | 91.2 | 70 | 34 | 105 | 91.6 | 101 | 88 | 88.3 | 88 | 89.2 | 85.3 | 86.2 | 78.7 | 36.1 | 89.2 | 93 | 93.8 | 98.1 | 88.7 | 98.8 | 92.5 | 93.1 | 80.5 | 62.5 | 29.9
